Molecules are shown by their SMILES. Like-named read-outs stand apart in the source and are kept apart here.

From patent EP0336326A2, “3-Aminodihydrothiophene-2-one peptide derivatives, processes for the preparation and therapeutic use” (POLI INDUSTRIA CHIMICA S.p.A., priority 1988, dated 1989) come the findings set out here.

For one experiment, the system named is 4% mucin suspension. In words: in vitro mucolytic activity test with a 4% mucin suspension. Format: biochemical. As to conditions: equimolar concentrations (0.00625 M), after hydrolysis with rat serum; 6250 µM.
Experiment [1] is described as follows: mucolytic-expectorant activity: test of fluorescein elimination from the respiratory tract. Type of experiment: in vivo. Particulars: po; 0.5 mM/kg orally; in comparison with the controls; read-out: increase in the dye excretion.
The subject of experiment [2] is elastase-induced emphysema. Put plainly: antiemphysema activity: pancreatic elastase induced emphysema, mean linear intercept (MLI) morphometry. Format: in vivo. Particulars: hamster; 0.25 mM/kg per os, during 4 weeks. An excerpt: The compounds of the present invention also display an interesting antiemphysema activity in the hamster (P.J. Stone et al., Amer. Rev. Respir. Dis., 124, 56, 1981). Emphysema induced by pancreatic elastase is morphometrically measured by evaluating, in µm, the mean linear intercept (MLI) (J. Kleinerman et al., Amer. Rev. Respir. Dis., 121, 381, 1980).

The subject of the next experiment is hystamine shock. In words: antibronchospastic activity: histamine shock test. Format: in vivo. Particulars: Cavia porcellus, ip; guinea pig; 0.25 mM/kg i.p.; compared with the basal values; read-out: increase resistance times against shock. How it is done:
The antibronchospastic activity of the compounds of the present invention was evaluated by the hystamine shock test in guinea pig (P. C. Braga et al., Min. Pneumol., 23, 447, 1984).

Experiment [3] relates to Bordetella pertussis induced edema. Put plainly: antiinflammatory activity: Bordetella pertussis induced edema test. Type of experiment: in vivo. As to conditions: in Rattus norvegicus, po, 24 h, read-out: reduce the edema after 24 hours. The method, then: The antiinflammatory activity was evaluated by the test of Bordetella pertussis induced edema in the rat (F. Capasso, Agents and Actions, 11, 741, 1981).

The subject of the next experiment is CCl4intoxication. In words: hepatoprotective activity: CCl4 intoxication test. Particulars: ip, rat, 0.25 mM/kg i.p. Format: in vivo. How it is done: The hepatoprotective activity was determined by the CCl4intoxication test in the rat (E. C. Ferreyra et al., Toxic. Appl. Pharmacol., 27, 558, 1974).
Where [4] appears, read: in comparison with intoxicated controls, read-out: reduce serum GOT.
Where [5] appears, read: in comparison with the intoxicated controls, read-out: reduce serum GPT.

`CC(SC(=O)c1cccs1)C(=O)NCC(=O)NC1CCSC1=O` (racemic) [Compound III] yielded a reductions in viscosity in the experiment on 4% mucin suspension of 13.1%. Also, the change in vivo at 500 µM, 500 µmol/kg in experiment [1] was 71.3%. Further, the “reduce the MLI increase in elastase-induced emphysema” value (from here on “reduce the MLI increase”) in experiment [2] stood at 32.7%. The change in vivo at 250 µM, 250 µmol/kg in the experiment with hystamine shock was 186%. In experiment [3], the inhibition in vivo at 500 µM, 500 µmol/kg is 41.8%. The inhibition in vivo at 250 µM, 250 µmol/kg in the experiment with CCl4intoxication (setting [4]) came to 54.7%; in the experiment with CCl4intoxication (setting [5]), 54.1%.
Regarding `CC(=O)N[C@@H](CS)C(=O)N[C@H]1CCSC1=O` [Compound IV, L-3-[(N-acetylcysteinyl)]aminodihydrothiophene-2-one], in the experiment with 4% mucin suspension, the reductions in viscosity was 12.8%. In experiment [1], the change in vivo at 500 µM, 500 µmol/kg amounted to 68.5%. Further, in experiment [2], the “reduce the MLI increase” value worked out at 31.8%. Also, the change in vivo at 250 µM, 250 µmol/kg with hystamine shock amounted to 180%. In addition, the inhibition in vivo at 500 µM, 500 µmol/kg in experiment [3] was 36.7%. Moreover, the inhibition in vivo at 250 µM, 250 µmol/kg in the experiment on CCl4intoxication (setting [4]) was determined as 52.7%; in the experiment on CCl4intoxication (setting [5]), 48.7%.
In the experiment with 4% mucin suspension, `CC(S)C(=O)NCC(=O)O` (stereo not shown) [tiopronin, reference compound] yielded a reductions in viscosity of 11.5%. The change in vivo at 500 µM, 500 µmol/kg in experiment [1] is 55.8%. In addition, in the experiment on hystamine shock, the change in vivo at 250 µM, 250 µmol/kg was found to be 166%. In addition, the inhibition in vivo at 500 µM, 500 µmol/kg in experiment [3] is 28.6%. The inhibition in vivo at 250 µM, 250 µmol/kg in the experiment on CCl4intoxication (setting [4]) amounted to 42.2%; in the experiment with CCl4intoxication (setting [5]) it was 39.8%.
The molecule `CC(=O)N[C@@H](CS)C(=O)O` [N-acetyl-cysteine, reference compound] returned a reductions in viscosity in the experiment on 4% mucin suspension of 10.8%. For the same molecule, in experiment [1], the change in vivo at 500 µM, 500 µmol/kg worked out at 45.6%. In addition, the change in vivo at 250 µM, 250 µmol/kg in the experiment with hystamine shock came out at 168%. In addition, in experiment [3], the inhibition in vivo at 500 µM, 500 µmol/kg amounted to 23.2%. For the same molecule, the inhibition in vivo at 250 µM, 250 µmol/kg with CCl4intoxication (setting [4]) turned out to be 39.9%; in the experiment with CCl4intoxication (setting [5]), 37.8%.
In the experiment with 4% mucin suspension, `CC(S)C(=O)NCC(=O)N1CSC[C@H]1C(=O)O` (stereo partly drawn) [Compound VII, L-3-[(2-thiolpropionyl)glycyl]thiazolidin-4-carboxylic acid] came in with a reductions in viscosity of 13.6%. Also, the change in vivo at 500 µM, 500 µmol/kg in experiment [1] was 71.9%. Also, the “reduce the MLI increase” value in experiment [2] is listed as 34.9%. For the same molecule, the change in vivo at 250 µM, 250 µmol/kg in the experiment on hystamine shock turned out to be 188%. Also, in experiment [3], the inhibition in vivo at 500 µM, 500 µmol/kg is 37.9%. In addition, the inhibition in vivo at 250 µM, 250 µmol/kg is 59.3% in the experiment with CCl4intoxication (setting [4]) and 51.9% in the experiment on CCl4intoxication (setting [5]).
On to `CC(=O)N[C@@H](CSC(=O)c1cccs1)C(=O)NC1CCSC1=O` (stereo partly drawn) [Compound V, 3-(N-acetyl-S-(2-thenoyl)-cysteinyl)aminodihydrothiophene-2-one], for which the reductions in viscosity with 4% mucin suspension is on record as 12.4%. Moreover, the change in vivo at 500 µM, 500 µmol/kg in experiment [1] was 67.6%. In addition, in experiment [2], the “reduce the MLI increase” value was 32.7%. Moreover, the change in vivo at 250 µM, 250 µmol/kg in the experiment with hystamine shock came to 181%. Further, the inhibition in vivo at 500 µM, 500 µmol/kg in experiment [3] was found to be 35.8%. In addition, the inhibition in vivo at 250 µM, 250 µmol/kg with CCl4intoxication (setting [4]) was 56.1%; with CCl4intoxication (setting [5]) it was 47.6%.
Consider `CC(SC(=O)c1cccs1)C(=O)NCC(=O)N1CSC[C@H]1C(=O)NC1CCSC1=O` (stereo partly drawn) [Compound VIII, 3-{L-3-[(2-thenoylthiopropionyl)glycyl]thiazolidin-4-carbonyl}aminodihydrothiophene-2-one], for which, in the experiment with 4% mucin suspension, the reductions in viscosity turned out to be 13.2%. Besides, in experiment [1], the change in vivo at 500 µM, 500 µmol/kg was found to be 70.8%. Also, the “reduce the MLI increase” value in experiment [2] is on record as 35.4%. Also, the change in vivo at 250 µM, 250 µmol/kg with hystamine shock turned out to be 188%. Besides, in experiment [3], the inhibition in vivo at 500 µM, 500 µmol/kg was 38.1%. Besides, the inhibition in vivo at 250 µM, 250 µmol/kg with CCl4intoxication (setting [4]) stood at 60.1%; with CCl4intoxication (setting [5]) it was 54.1%.
`CC(S)C(=O)NCC(=O)NC1CCSC1=O` (stereo not shown) [Compound II, 3-[(2-thiolpropionyl)glycyl]aminodihydrothiophene-2-one] displayed a reductions in viscosity with 4% mucin suspension of 13.4%. Besides, the change in vivo at 500 µM, 500 µmol/kg in experiment [1] is 72%. In addition, the “reduce the MLI increase” value in experiment [2] amounted to 30.6%. For the same molecule, the change in vivo at 250 µM, 250 µmol/kg in the experiment with hystamine shock came out at 190%. The inhibition in vivo at 500 µM, 500 µmol/kg in experiment [3] is 42.1%. Further, the inhibition in vivo at 250 µM, 250 µmol/kg amounted to 55.8% with CCl4intoxication (setting [4]) and 52.3% in the experiment with CCl4intoxication (setting [5]).
Molecule `CC(S)C(=O)NCC(=O)N1CSC[C@H]1C(=O)NC1CCSC1=O` (stereo partly drawn) [Compound VI, 3-{L-3-[(2-thiolpropionyl)glycyl]thiazolidin-4-carbonyl} aminodihydrothiophene-2-one] yielded a reductions in viscosity in the experiment on 4% mucin suspension of 13.4%. Moreover, the change in vivo at 500 µM, 500 µmol/kg in experiment [1] is 74.1%. Besides, the “reduce the MLI increase” value in experiment [2] is reported as 35.6%. The change in vivo at 250 µM, 250 µmol/kg with hystamine shock amounted to 191%. For the same molecule, the inhibition in vivo at 500 µM, 500 µmol/kg in experiment [3] came to 38.7%. The inhibition in vivo at 250 µM, 250 µmol/kg in the experiment with CCl4intoxication (setting [4]) stood at 58.5%; in the experiment with CCl4intoxication (setting [5]) it was 52.8%.
